Test results as given in patent US20160195530A1, “METHOD FOR ANALYSIS OF NKT CELL FUNCTION” (RIKEN, priority 2005, published 2016).

What was measured:
NKT cell line = assay: Antigen-specific growth of NKT cell line cocultivated with heterologous DCs; assay type: cell-based, human; conditions: heterologous DCs in presence of antigen, 10 days, serially diluted NKT cell line mixed with NKT cell-removed PBMCs
Experimental: Mature DCs were stimulated for maturation, as well as pulsed using α-GalCer (100 ng/ml) for 48 hr in the 5th-7th days of the cultivation. 1×10^4 DCs pulsed with α-GalCer were added to the each well of 1×10^5 Mφ-depleted PBMCs in the presence of recombinant IL-2 (100 U/ml). 10-14 Days later, Va24^+ NKT cells were stained with FITC-labeled anti-Vα24 mAb, and selected using anti-FITC magnetic beads. Va24^+ NKT cells were maintained as a cell line in CM in the presence of 100 U/ml IL-2, and restimulated by PBMCs that had been irradiated in the presence of α-GalCer.
After serial dilution of the NKT cell line that was prepared by the method described in Example 4, the diluted solutions were mixed with NKT cell-removed PBMCs, cocultivated with heterologous DCs in the presence of an antigen (α-GalCel), and the growth rates were calculated 10 days later.

[1] = system: NKT cells in peripheral blood; assay: ELISPOT assay of IFN-γ-producing cells with α-GalCer-loaded mature DCs (autologous, allogeneic, heterologous); assay type: cell-based, human; conditions: α-GalCer 100 ng/ml
Description: In order to study whether activation of NKT cells in peripheral blood varies by DCs of different derivation, NKT cell activation in an autologous, allogeneic or heterologous system was studied by an ELISPOT assay with IFN-γ productivity as an index.
Human DCs were obtained by purifying CD14% monocytes with magnetic beads (Miltenyi Biotec Inc. Auburn, Calif.) and cultivating them for 7 days in the presence of 500 U/ml recombinant human IL-4 and 1,000 U/ml recombinant human GM-CSF. α-GalCer (100 ng/ml) or the same amount of vehicle (DMSO, Sigma) was loaded onto DCs at the 5th day, given maturation stimuli (10 ng/ml IL-1β, 10 ng/ml TNFα, and 1 μg/ml PGE2) at the 6th day, and recovered at the 7th day.
Bone marrow precursor cells were grown into DCs induced from mouse bone marrow in 5% FCS-containing RPMI-1640 using mouse GM-CSF. At the 6th day, α-GalCer (100 ng/ml) was added to immature bone marrow DCs, and cultivation was performed for 40 hr. For maturation of DCs, 100 ng/ml LPS was added at the 7th day, and cultivation was performed for 16 hr. Matured α-GalCer-pulsed DCs were recovered at the 8th day.
For detection of IFN-γ-secreting cells, 96-well filtration plates (Millipore, Bedford, Mass.) were coated with mouse anti-human IFN-γ (10 μg/ml, Mabtech, Sweden). PBMCs (1×10^6) were incubated in RPMI containing 5% human AB serum or 10% calf serum (complete medium or CM; GIBCO) in either presence or absence of α-GalCer (100 ng/ml). PMA (10 μg/ml) and ionomycin were used as positive controls. […] Spot-forming cells (SFC) were quantified with a microscope. When the reactivity was not less than 10 SFC/well and not less than twice the background (without αGalCer), the assay was scored as positive. In order to compare naive NKT cell activation ability of different APCs (autologous, allogeneic and heterologous DC) in cultures, Mφ-depleted cells (1×10^6/well) were cultivated with […] α-GalCer or vehicle-loaded APCs (1×10^5/well) in CM for 16 hr. α-GalCer-dependent IFN-γ-producing cells were measured by an ELISPOT assay.

[2] = system: NKT cell contained in peripheral blood of a healthy subject; assay: Cocultivation of Mφ-depleted PBMC with α-GalCer-pulsed mature mouse DC, flow cytometry and intracellular staining; assay type: cell-based, human; conditions: healthy subjects; α-GalCer-pulsed mature mouse DCs, IL-2 100 U/ml, 9 days
Experimental: At first, mouse DCs were induced from mouse bone marrow cells. Mouse bone marrow cells were cultivated in 5% FCS-containing RPMI-1640 in the presence of mouse GM-CSF under 5% CO2 at 37° C. for 5 days.
Subsequently, immature mouse DCs were maturated. To the culture obtained as mentioned above (containing immature mouse DCs), α-GalCer (100 ng/ml) was added at the 6th day, and the culture was cultivated for 40 hr. For an acieration of the maturation, 100 ng/ml LPS was added at the 7th day, and the culture was cultivated for 16 hr. Thus obtained α-GalCer-pulsed mature mouse DCs were recovered at the 8th day.
PBMCs were obtained by blood drawing from healthy subjects, and Mφ-depleted PBMCs were obtained by removing macrophages (Mφ) using an anti-CD14 antibody (simultaneously using a CD11c antibody as necessary) and magnetic beads.
α-GalCer-pulsed mature mouse DCs (5×10^4 cells/ml) obtained by the above-mentioned (1) and Mφ-depleted PBMCs (5×10^5 cells/ml) obtained by the above-mentioned (2) were cultivated in 10% FCS-containing RPMI-1640 in the presence of recombinant human IL-2 (100 U/ml) under 5% CO2 at 37° C. for 9 days.
After cultivation in accordance with the protocol of the above-mentioned (1)-(3), the number of NKT cells and the frequency of NKT cells having an cytokine production ability were measured by flow cytometry and intracellular staining. […]

human NKT cells = assay: IFN-γ ELISA after cocultivation of isolated human NKT cells with α-GalCer-pulsed autologous or heterologous DCs; assay type: cell-based; conditions: α-GalCer-pulsed heterologous (mouse) DCs versus autologous DCs
Experimental: In order to clarify that a human NKT cell can be specifically activated by a heterologous DC, human NKT cells were isolated, cocultivated with α-GalCer-pulsed autologous or heterologous DCs, after which the culture supernatants were collected, and cytokine production was measured by the ELISA method.
After growth of the NKT cell with α-GalCer and IL-2, the cells were sorted using FACS Vantage with anti-invariant NKT antibodies, and cocultivated with α-GalCer-pulsed heterologous or autologous DCs, after which IFN-γ was quantified by the ELISA method.

Compound: CCCCCCCCCCCCCCCCCCCCCCCCCC(=O)N[C@@H](CO[C@H]1O[C@H](CO)[C@H](O)[C@H](O)[C@H]1O)[C@H](O)[C@H](O)CCCCCCCCCCCCCC [α-GalCer, 25,35,4R-1-0(α-galactopyranosyl)-2(N-hexacosanoylamino)-1,3,4-octadecanetriol]
- antigen-specific growth of human NKT cells (NKT cell line): antigen-specifically grown by heterologous DCs
- α-GalCer-dependent NKT cell activation (IFN-γ productivity, ELISPOT) ([1]; high frequency NKT cell-containing group (% NKT>0.05%), autologous and heterologous DCs): activation of NKT cell was confirmed
- α-GalCer-dependent NKT cell activation (IFN-γ productivity, ELISPOT) ([1]; low frequency NKT cell-containing group (% NKT<0.01%)): NKT cell activation was not confirmed
- α-GalCer-dependent NKT cell activation (IFN-γ productivity, ELISPOT) ([1]; middle frequency NKT cell-containing group (0.01%<% NKT<0.05%)): activation of NKT cell was confirmed in an α-GalCer dependent manner, but the production amount was found to be decreased
- cytokine production (frequency of NKT cells having cytokine production ability, IFN-γ) [2]: confirmed
- α-GalCer-dependent growth of human NKT cells (number of NKT cells) [2]: confirmed
- IFN-γ production (ELISA, culture supernatant) (human NKT cells): IFN-γ production was confirmed in the heterologous system, though it was lower than in the autologous system
